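Step 1: Grow cells in 96-well plates. Step 2: Expose to compound for 48 hours at 5 concentrations. Step 3: Interpolate endpoints linearly; if unreached, use highest concentration. GI50 marks 50% less growth. TGI: concentration producing complete growth inhibition.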
Experiments:
Experiment in all cases: NCI-60 cell line screen, 48 h
[1] = tested on: OVCAR-4 ovarian
[2] = tested on: NCI-H460 lung
[3] = tested on: HCT-116 colon
[4] = tested on: OVCAR-3 ovarian
[5] = tested on: MDA-MB-435
[6] = tested on: UACC-62 melanoma
[7] = tested on: SK-MEL-5 melanoma
[8] = tested on: RXF 393 renal
[9] = tested on: PC-3 prostate
[10] = tested on: CCRF-CEM leukemia
[11] = tested on: HT29 colon
[12] = tested on: HS 578T breast
[13] = tested on: SNB-19 CNS
[14] = tested on: COLO 205 colon
[15] = tested on: HCT-15 colon
[16] = tested on: DU-145 prostate
[17] = tested on: MDA-MB-231 breast
[18] = tested on: A549 NSCLC
[19] = tested on: HL-60(TB) leukemia
[20] = tested on: NCI-H23 lung
[21] = tested on: IGROV1 ovarian
[22] = tested on: T-47D breast
[23] = tested on: HOP-92 NSCLC
[24] = tested on: SF-539 CNS
[25] = tested on: SK-MEL-28 melanoma
[26] = tested on: SF-268 CNS
[27] = tested on: MOLT-4 leukemia
[28] = tested on: M14 melanoma
[29] = tested on: NCI-H522 lung
[30] = tested on: UACC-257 melanoma
[31] = tested on: 786-0 renal
[32] = tested on: NCI-H226 lung
[33] = tested on: LOX IMVI melanoma
[34] = tested on: HOP-62 NSCLC
[35] = tested on: HCC-2998 colon
[36] = tested on: TK-10 renal
[37] = tested on: OVCAR-5 ovarian
[38] = tested on: CAKI-1 renal
[39] = tested on: SF-295 CNS
[40] = tested on: A498 renal
[41] = tested on: SK-OV-3 ovarian
[42] = tested on: SK-MEL-2 melanoma
[43] = tested on: UO-31 renal
[44] = tested on: SN12C renal
[45] = tested on: OVCAR-8 ovarian
[46] = tested on: RPMI-8226 leukemia
[47] = tested on: U251 CNS
[48] = tested on: EKVX NSCLC
[49] = tested on: ACHN renal
[50] = tested on: BT-549 breast
[51] = tested on: SNB-75 CNS
[52] = tested on: KM12 colon
[53] = tested on: MCF7 breast
[54] = tested on: MALME-3M melanoma
[55] = tested on: K-562 leukemia
[56] = tested on: SW-620 colon
[57] = tested on: NCI/ADR-RES ovarian
[58] = tested on: SR leukemia

`O=C(/C=C/C12c3ccccc3C(c3ccccc31)C1C(=O)NC(=O)C12)c1ccco1` (stereo not given) showed a GI50 [1] of 3.45 µM, a TGI [1] of 13.5 µM and a GI50 [2] of 1.8 µM. The TGI [2] was 3.98 µM, the GI50 [3] was 1.69 µM and the TGI [3] was 3.74 µM. The GI50 [4] was 2.47 µM, the TGI [4] was 5.8 µM and the GI50 [5] was 2.35 µM. For the same compound, the TGI [5] was 5.84 µM, the GI50 [6] was 2.16 µM and the TGI [6] was 4.9 µM. It also gave a GI50 [7] of 1.77 µM, a TGI [7] of 3.28 µM and a GI50 [8] of 1.79 µM. For the same compound, the TGI [8] was 3.48 µM, the GI50 [9] was 1.74 µM and the TGI [9] was 5 µM. It also gave a GI50 [10] of 1.24 µM, a TGI [10] of 9.57 µM and a GI50 [11] of 2.28 µM. The TGI [11] was 5.06 µM, the GI50 [12] was 4.16 µM and the TGI [12] was 30.2 µM. For the same compound, the GI50 [13] was 2.19 µM, the TGI [13] was 5.17 µM and the GI50 [14] was 3.27 µM. The TGI [14] was 9.32 µM, the GI50 [15] was 2.14 µM and the TGI [15] was 5.43 µM. It also gave a GI50 [16] of 2.98 µM, a TGI [16] of 11.9 µM and a GI50 [17] of 3.85 µM. The TGI [17] was 15.4 µM, the GI50 [18] was 3.25 µM and the TGI [18] was 10.1 µM. For the same compound, the GI50 [19] was 1.58 µM, the TGI [19] was 4.89 µM and the GI50 [20] was 2.22 µM. The TGI [20] was 4.83 µM, the GI50 [21] was 3.24 µM and the TGI [21] was 9.73 µM. For the same compound, the GI50 [22] was 3.43 µM, the TGI [22] was 20.3 µM and the GI50 [23] was 1.74 µM. It also gave a TGI [23] of 4.54 µM, a GI50 [24] of 2.04 µM and a TGI [24] of 4.16 µM. It also gave a GI50 [25] of 2.37 µM, a TGI [25] of 4.73 µM and a GI50 [26] of 2.72 µM. The TGI [26] was 9.1 µM, the GI50 [27] was 2.16 µM and the TGI [27] was 7.63 µM. It also gave a GI50 [28] of 3.1 µM, a TGI [28] of 11.2 µM and a GI50 [29] of 1.84 µM. For the same compound, the TGI [29] was 3.75 µM, the GI50 [30] was 4.4 µM and the TGI [30] was 15.6 µM. The GI50 [31] was 3.28 µM, the TGI [31] was 10.8 µM and the GI50 [32] was 3.03 µM. For the same compound, the TGI [32] was 9.85 µM, the GI50 [33] was 1.85 µM and the TGI [33] was 3.76 µM. It also gave a GI50 [34] of 2.7 µM, a TGI [34] of 6.99 µM and a GI50 [35] of 1.79 µM. It also gave a TGI [35] of 3.52 µM, a GI50 [36] of 3.7 µM and a TGI [36] of 10.9 µM. The GI50 [37] was 3.15 µM, the TGI [37] was 10.7 µM and the GI50 [38] was 3.74 µM. The TGI [38] was 14 µM, the GI50 [39] was 3.33 µM and the TGI [39] was 11.6 µM. For the same compound, the GI50 [40] was 2.42 µM, the TGI [40] was 6.05 µM and the GI50 [41] was 4.01 µM. It also gave a TGI [41] of 12.8 µM, a GI50 [42] of 2.19 µM and a TGI [42] of 4.44 µM. The GI50 [43] was 2.19 µM, the TGI [43] was 7.49 µM and the GI50 [44] was 3.21 µM. The TGI [44] was 11.3 µM, the GI50 [45] was 3.12 µM and the TGI [45] was 12.5 µM. For the same compound, the GI50 [46] was 1.1 µM, the TGI [46] was 4.21 µM and the GI50 [47] was 2.01 µM. For the same compound, the TGI [47] was 4.36 µM, the GI50 [48] was 3.16 µM and the TGI [48] was 11 µM. For the same compound, the GI50 [49] was 3.63 µM, the TGI [49] was 12.3 µM and the GI50 [50] was 2.89 µM. It also gave a TGI [50] of 7.53 µM, a GI50 [51] of 3.44 µM and a TGI [51] of 12.2 µM. The GI50 [52] was 2.36 µM, the TGI [52] was 5.99 µM and the GI50 [53] was 2.49 µM. The TGI [53] was 12.6 µM, the GI50 [54] was 2.35 µM and the TGI [54] was 6.72 µM. For the same compound, the GI50 [55] was 2.19 µM, the TGI [55] was 12.5 µM and the GI50 [56] was 2.59 µM. It also gave a TGI [56] of 7.22 µM, a GI50 [57] of 2.38 µM and a TGI [57] of 6.42 µM.

`Cc1ncc([N+](=O)[O-])n1CC(O)Cn1cnc([N+](=O)[O-])n1` (stereo not given) was tested, and the TGI [2] was > 100 µM, the TGI [3] was > 100 µM and the TGI [58] was > 100 µM. The TGI [4] was > 100 µM, the TGI [7] was > 100 µM and the TGI [9] was > 100 µM. The TGI [10] was > 100 µM, the TGI [11] was > 100 µM and the TGI [12] was > 100 µM. For the same compound, the TGI [15] was > 100 µM, the TGI [18] was > 100 µM and the TGI [19] was > 100 µM. For the same compound, the TGI [20] was > 100 µM, the TGI [24] was > 100 µM and the TGI [25] was > 100 µM. For the same compound, the TGI [26] was > 100 µM, the TGI [27] was > 100 µM and the TGI [29] was > 100 µM. For the same compound, the TGI [30] was > 100 µM, the TGI [31] was > 100 µM and the TGI [32] was > 100 µM. For the same compound, the TGI [34] was > 100 µM, the TGI [35] was > 100 µM and the TGI [37] was > 100 µM. For the same compound, the TGI [39] was > 100 µM, the TGI [40] was > 100 µM and the TGI [42] was > 100 µM. The TGI [44] was > 100 µM, the TGI [45] was > 100 µM and the TGI [46] was > 100 µM. The TGI [47] was > 100 µM, the TGI [48] was > 100 µM and the TGI [49] was > 100 µM. The TGI [51] was > 100 µM, the TGI [52] was > 100 µM and the TGI [53] was > 100 µM. The TGI [54] was > 100 µM, the TGI [55] was > 100 µM and the TGI [56] was > 100 µM.

With `CO[C@@]12C[C@@H](CNC(=O)c3cc(Br)c[nH]3)O[C@@H]1NC(=O)N2` the TGI [1] was > 100 µM, the TGI [2] was > 100 µM and the TGI [3] was > 100 µM. The TGI [4] was > 100 µM, the TGI [5] was > 100 µM and the TGI [6] was > 100 µM. The TGI [7] was > 100 µM, the TGI [8] was > 100 µM and the TGI [9] was > 100 µM. The TGI [10] was > 100 µM, the TGI [11] was > 100 µM and the TGI [12] was > 100 µM. The TGI [13] was > 100 µM, the TGI [14] was > 100 µM and the TGI [15] was > 100 µM. The TGI [16] was > 100 µM, the TGI [17] was > 100 µM and the TGI [18] was > 100 µM. The TGI [20] was > 100 µM, the TGI [21] was > 100 µM and the TGI [22] was > 100 µM. For the same compound, the TGI [24] was > 100 µM, the TGI [25] was > 100 µM and the TGI [26] was > 100 µM. The TGI [28] was > 100 µM, the TGI [29] was > 100 µM and the TGI [30] was > 100 µM. The TGI [31] was > 100 µM, the TGI [32] was > 100 µM and the TGI [33] was > 100 µM. For the same compound, the TGI [34] was > 100 µM, the TGI [36] was > 100 µM and the TGI [37] was > 100 µM. For the same compound, the TGI [38] was > 100 µM, the TGI [39] was > 100 µM and the TGI [40] was > 100 µM. The TGI [41] was > 100 µM, the TGI [42] was > 100 µM and the TGI [43] was > 100 µM. The TGI [44] was > 100 µM, the TGI [45] was > 100 µM and the TGI [46] was > 100 µM. For the same compound, the TGI [47] was > 100 µM, the TGI [48] was > 100 µM and the TGI [49] was > 100 µM. For the same compound, the TGI [50] was > 100 µM, the TGI [51] was > 100 µM and the TGI [52] was > 100 µM. The TGI [53] was > 100 µM, the TGI [54] was > 100 µM and the TGI [56] was > 100 µM. The TGI [57] was > 100 µM.
